Data taken from patent publication US7700353B2, “Compositions and methods for inducing apoptosis in tumor cells” (E-P Therapeutics, Inc., priority 1998, dated 2010).

B1: rtEa-3: recombinant Ea-3 peptide of rainbow trout pro-IGF-I, 62 amino acid residues (SEQ ID NO: 3) (protein)
chain: RSVRAQRHTDMPRTPKVSTAVQSVDRGTERRTAQHPDKTKPKKEVHQKNSSRGNTGGRNYRM
modifications: Oncorhynchus mykiss

Assays:
[1] = test system: NIH 3T3 cells and caprine mammary epithelium cells (CMEC); conditions: recombinant peptides; cited from earlier work
[2] = test system: cultured BALB/3T3 fibroblast; conditions: recombinant peptides; cited from earlier work
293GP or ZR-75-1 cells = assay: Morphological change by Ea-2, Ea-3, Ea-4 peptides; assay type: cell-based, human; conditions: 0.8 μM, 24 hours
Method: (§1) Approximately 1-2×10^5 of MCF-7, ZR-75-1, HT-29, HepG2, 293GP, HC or SK-N-F1 cells re-suspended in their respective basal medium without fetal bovine serum (FBS) were plated in a 6-well culture chamber. Prior to plating cells, an acid-washed coverslip was placed in each well of the culture chamber. Recombinant rainbow trout E-peptides (rtEa-2, rtEa-3 or rtEa-4 peptide at 0.8 µM), human IGF-I (hIGF-1, 2.5 nM) or the same amount of control protein was added to each well and the cell cultures were incubated at 37° C. under a humidified atmosphere of 5% CO2. The control protein was prepared from E. coli cells carrying the expression plasmid but without the E-peptide gene according to the purification method described by Tian et al. (1999). Coverslips were removed from the culture chamber 24 hours after initiation of the treatment and observed under an Olympic inverted microscope equipped with differential interference phase contrast objective lenses or phase contrast objective lens (final magnification, 200×). The morphological change assay was performed at least 10 times with different batches of Ea-4 peptide preparations.
Cells were again cultured as described above. Twenty-four hours after treatment with 0.8 µM of E-peptides or the control protein, the cells were observed under an Olympic inverted microscope equipped with differential interference phase contrast objective lenses (200× magnification). […] To confirm this hypothesis, synthetic peptides specific to Ea-1-, Ea-2-, Ea-3- and Ea-4-peptide (Ea-1sp, Ea-2sp, Ea-3sp and Ea-4sp) specific sequence (see FIG. 1) were prepared and tested for their activities to induce morphological change in ZR-75-1 cells. For FIG. 6, cells were cultured in F12/DME medium without FBS as described above. Twenty-four hours after treatment with 0.8 µM of synthetic peptide containing Ea-1 sp, Ea-2sp, Ea-3sp or Ea-4sp specific sequence or the control protein, the cells were observed under an Olympic inverted microscope equipped with differential interference phase contrast objective lenses (200× magnification).

293GP and MCF-7 cells = assay: Effect of RNA/protein synthesis inhibitors on Ea-4 induced morphological change; assay type: cell-based, human; conditions: 24 hours
Method: To study the effects of α-aminitin and cycloheximide, known inhibitors of RNA and protein synthesis, respectively, on morphological changes induced by rtEa-4-peptide, about 1-2×10^5 of ZR-75-1 and 293GP cells, re-suspended in their respective basal medium without FBS, were plated in a 6-well culture chamber. Prior to plating the cells, an acid-washed coverslip was placed in each well of the culture chamber. Each culture was treated with recombinant trout Ea-4-peptide at 0.8 µM, and with either α-aminitin at 10 µg/mL (an RNA synthesis inhibitor) or with cycloheximide at 1.0 µg/mL (a protein synthesis inhibitor). The cell cultures were incubated at 37° C. under a humidified atmosphere of 5% CO2. Coverslips were removed from the culture chamber 24 hours after initiation of the treatment and observed under an Olympic inverted microscope equipped with differential interference phase contrast objective lenses (final magnification, 200×). The viability of the inhibitor-treated cells was further determined by a dye extrusion assay.
To determine whether the morphological changes induced by the Ea-4 peptides requires synthesis of new proteins or of RNA, 293GP and MCF-7 cells were cultured under the same conditions as described above. Ea-4 peptide-induced morphological changes in 293GP and MCF-7 cells were abolished by treatment with cycloheximide or α-aminitin (FIG. 4).

[3] = test system: SK-N-F1 neuroblastoma cells; assay: Neurite-like process outgrowth / morphological differentiation; assay type: cell-based, human; conditions: 5 nM
Method: Cells under various treatment conditions were maintained at 37° C. in a 5% CO2 incubator and observed from 30 minutes to 72 hours after incubation (synthetic human Ea- and Eb-peptide were chemically synthesized at the Biotechnology Center, University of Connecticut). For treatment with synthetic hEa, hEb peptide or hlGF-I, 1×10^5 cells were plated in each well of a 12-well culture plate in DMEM/F12 (1:1) supplemented with 0.4-3.2 µM of synthetic hEa-, hEb-peptide and/or 5-10 nM of hlGF-I.
Neuroblastoma SK-N-F1 cells (10^5) were seeded into 12-well culture plates in DMEM/F12 (1:1) supplemented with 0-3.2 µM of synthetic hEb-peptide, or buffer control, and incubated at 37° C. in a 5% CO2 humidified incubator.
Cell images were taken by random sampling at various time points using a MicroMAX CCD camera (Princeton Instruments, Bozeman, Mont.). Approximately 1000 cells were analyzed from each treatment, carried out in triplicate. Cells with neurites longer than one cell body diameter (>20 µm for SK-N-F1 cells) were scored as positive neurite-bearing (Fagerstrom, et al., Cell Growth Differ., 7: 775-85, 1996; Morrione, et al., Cancer Res. 60: 2263-72, 2000). The percentage of neurite-bearing cells and the respective length of neurites were measured with reference to a stage micrometer and analyzed using the public domain NIH Image program (developed at the U.S. National Institutes of Health and available on the Internet at http://rsb.info.nih.gov/nih-image).
To further characterize the dose-response relationship and time course of hEb peptide in inducing neurite-like process outgrowth, SK-N-F1 neuroblastoma cells were treated with various amounts (0 to 3.2 µM) of hEb peptide over a course of 72 hours. Images of cells were taken by random sampling after 1 h, 6 h, 24 h, 48 h and 72 h of incubation (see FIG. 11B). The average length of neurite-like process outgrowth was measured by random sampling of more than 1000 cells at various time points. The neurite-like processes started to be visible as early as 0.5-1 hour after the addition of hEb peptide. The effect of hEb peptide in inducing neurite-like outgrowth was dose-dependent, as evident from a comparison of cells treated with 0.4 µM hEb peptide with those treated with 0.8-3.2 µM hEb peptide over 24-72 hours. The maximum effect of hEb peptide was observed 48 hours after the addition of 3.2 µM hEb peptide, with an average neurite length of 50 to 60 µm (Table 1, below).

[4] = test system: neuroblastoma SK-N-F1 cells; assay: Soft agar colony formation (hEb peptide); assay type: cell-based, human; conditions: 5 nM
Method: The effect of hEb-peptide on in vitro colony formation was tested in the presence or absence of either the mature hlGF-I or fetal bovine serum (FIG. 12). Human neuroblastoma SK-N-F1 cells (10^4) were mixed with 0.4% soft agar supplemented with or without hEb peptide (3.2 µM), IGF-I (5 nM) and/or fetal bovine serum (2.5%), as indicated. The cell mixtures were seeded on top of a solidified basal medium DMEM/F12 (1:1) containing 0.5% agar. Medium supplemented with various peptides or serum were overlaid on top of the solidified cell layer followed by a two-week period incubation at 37° C. in a 5% CO2 humidified incubator. The percentage of cells formed into colonies with a diameter greater than 100 µm Macpherson, Tissue culture methods and applications, pp 276-80: N.Y. Academic Press, 1973) were scored in triplicate and subjected to Student t-test analysis. At least three independent assays under each treatment conditions were carried out.

[5] = test system: MCF-7, HT-29, HepG2, ZR-75-1, SK-N-F1, or HC cells; assay: Morphological change assay in tumor cell lines; assay type: cell-based, human and fish; conditions: 2.5 nM, 24 hours, serum-free basal medium
Method: as §1
Oncogenic transformed or established cancer cells derived from human and fish (MCF-7, HT-29, HepG2, ZR-75-1, SK-N-F1, or HC cells) were plated in their respective serum-free basal medium supplemented with 0.8 µM of the trout recombinant Ea-4-peptide, with the control protein, or with 2.5 nM of the recombinant hlGF-I and the cultures were examined 24 hours later under an inverted microscope equipped with differential interference phase contrast objectives. […] The rtEa-4 peptide treated cells developed several pseudopodia-like structures to establish contact with neighboring cells similar to that seen in untransformed or non-malignant cells.
Because each of these tumor cell lines obtained from ATCC contains a mixed population of tumorous and nontumorous cells, only between 25-40% of the cells from each cell line responded to induction by rtEa-4-peptide. […]

Molecule | mitogenic activity [1] | mitogenic activity [2] | induction of morphological change (293GP or ZR-75-1 cells) | further results
rtEa-2: recombinant Ea-2 peptide of rainbow trout pro-IGF-I, 47 amino acid residues (SEQ ID NO: 4) (RSVRAQRHTDMPRTPKKPLSGHSHPSCKEVHQKNSSRGNTGGRNYRM; Oncorhynchus mykiss) | possess mitogenic activity | possess mitogenic activity | able to induce morphological change | 
.alpha.-aminitin |  |  |  | Ea-4 peptide-induced morphological changes (293GP and MCF-7 cells; α-aminitin 10 μg/mL with Ea-4 0.8 μM): abolished
hlGF-I: recombinant mature human insulin-like growth factor I [reference compound] |  |  |  | morphological change [3]: remained rounded and formed aggregated clusters; colony formation [4]: strongly stimulated colony formation; morphological change [5]: rounded morphology
C[C@@H]1C[C@@H]([C@H](O)CC2CC(=O)NC(=O)C2)C(=O)[C@@H](C)C1 [cycloheximide] |  |  |  | Ea-4 peptide-induced morphological changes (293GP and MCF-7 cells; cycloheximide 1.0 μg/mL with Ea-4 0.8 μM): abolished
B1 | possess mitogenic activity | possess mitogenic activity | failed to induce any visible morphological change | 
